This note sets out measurements from ChEMBL document CHEMBL2380196, “New anticancer active and selective phenylene-bisbenzothiazoles: synthesis, antiproliferative evaluation and DNA binding” (Eur J Med Chem, 2013).

The target in data set [1] is DNA topoisomerase 2-alpha (Homo sapiens) (UniProt P11388). Description: Inhibition of human topoisomerase 2-mediated supercoiled pUC19 DNA relaxation assessed as formation of open circle form after 45 mins using ethidium bromide staining by agarose gel electrophoresis.
Chain of DNA topoisomerase 2-alpha (Homo sapiens) (P11388 whole entry): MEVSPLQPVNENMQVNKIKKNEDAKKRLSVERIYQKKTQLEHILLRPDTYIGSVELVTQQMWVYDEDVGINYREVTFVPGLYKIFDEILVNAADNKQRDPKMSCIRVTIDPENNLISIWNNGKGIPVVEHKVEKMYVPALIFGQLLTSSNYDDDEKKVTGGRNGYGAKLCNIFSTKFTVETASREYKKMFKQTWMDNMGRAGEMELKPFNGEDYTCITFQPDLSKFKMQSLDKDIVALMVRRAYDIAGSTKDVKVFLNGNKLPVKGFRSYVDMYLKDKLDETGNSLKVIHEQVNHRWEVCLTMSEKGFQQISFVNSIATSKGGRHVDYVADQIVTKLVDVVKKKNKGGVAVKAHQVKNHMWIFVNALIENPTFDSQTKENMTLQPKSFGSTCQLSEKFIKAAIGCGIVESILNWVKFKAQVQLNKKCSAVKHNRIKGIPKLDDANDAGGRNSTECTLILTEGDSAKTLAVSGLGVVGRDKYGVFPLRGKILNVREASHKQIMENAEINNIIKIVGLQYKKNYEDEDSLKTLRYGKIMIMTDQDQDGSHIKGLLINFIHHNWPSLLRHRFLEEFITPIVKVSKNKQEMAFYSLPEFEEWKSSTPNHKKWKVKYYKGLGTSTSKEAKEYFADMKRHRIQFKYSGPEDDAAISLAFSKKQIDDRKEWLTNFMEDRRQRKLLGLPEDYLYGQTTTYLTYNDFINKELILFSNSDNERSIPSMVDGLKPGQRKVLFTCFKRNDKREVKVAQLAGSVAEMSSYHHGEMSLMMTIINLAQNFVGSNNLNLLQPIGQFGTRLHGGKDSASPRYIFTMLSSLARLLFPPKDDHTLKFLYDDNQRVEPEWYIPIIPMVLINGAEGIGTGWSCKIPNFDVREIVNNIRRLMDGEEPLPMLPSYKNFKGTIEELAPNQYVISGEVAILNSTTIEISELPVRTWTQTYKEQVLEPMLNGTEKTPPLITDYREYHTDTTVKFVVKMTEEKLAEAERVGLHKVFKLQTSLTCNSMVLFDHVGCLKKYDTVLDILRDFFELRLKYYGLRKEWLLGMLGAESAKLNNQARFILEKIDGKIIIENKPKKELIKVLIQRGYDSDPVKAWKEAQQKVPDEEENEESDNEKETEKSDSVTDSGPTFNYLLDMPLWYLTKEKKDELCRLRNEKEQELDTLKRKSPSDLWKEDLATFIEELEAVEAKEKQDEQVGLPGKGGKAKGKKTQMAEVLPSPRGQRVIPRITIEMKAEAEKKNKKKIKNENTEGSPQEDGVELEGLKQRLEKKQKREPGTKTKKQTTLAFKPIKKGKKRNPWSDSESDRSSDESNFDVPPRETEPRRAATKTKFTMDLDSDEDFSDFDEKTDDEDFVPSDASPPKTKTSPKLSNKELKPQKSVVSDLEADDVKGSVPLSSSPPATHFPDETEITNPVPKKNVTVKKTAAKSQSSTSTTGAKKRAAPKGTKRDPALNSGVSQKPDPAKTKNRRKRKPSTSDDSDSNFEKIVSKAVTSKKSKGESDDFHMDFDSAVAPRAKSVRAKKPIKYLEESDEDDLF
Data set [2] deals with MIA PaCa-2. Description: Antiproliferative activity against human MIAPaCa2 cells after 72 hrs by MTT assay. Format: functional, cell-based. Particulars: MIA PaCa-2, 72 h; for CC50: read-out: LC50 (the source's name). A general note: Tetrazolium dyes change colour on reduction, which living cells bring about.
Data set [3] addresses T1, DNA topoisomerase 1 (Homo sapiens) (UniProt P11387).
T1 sequence (whole entry): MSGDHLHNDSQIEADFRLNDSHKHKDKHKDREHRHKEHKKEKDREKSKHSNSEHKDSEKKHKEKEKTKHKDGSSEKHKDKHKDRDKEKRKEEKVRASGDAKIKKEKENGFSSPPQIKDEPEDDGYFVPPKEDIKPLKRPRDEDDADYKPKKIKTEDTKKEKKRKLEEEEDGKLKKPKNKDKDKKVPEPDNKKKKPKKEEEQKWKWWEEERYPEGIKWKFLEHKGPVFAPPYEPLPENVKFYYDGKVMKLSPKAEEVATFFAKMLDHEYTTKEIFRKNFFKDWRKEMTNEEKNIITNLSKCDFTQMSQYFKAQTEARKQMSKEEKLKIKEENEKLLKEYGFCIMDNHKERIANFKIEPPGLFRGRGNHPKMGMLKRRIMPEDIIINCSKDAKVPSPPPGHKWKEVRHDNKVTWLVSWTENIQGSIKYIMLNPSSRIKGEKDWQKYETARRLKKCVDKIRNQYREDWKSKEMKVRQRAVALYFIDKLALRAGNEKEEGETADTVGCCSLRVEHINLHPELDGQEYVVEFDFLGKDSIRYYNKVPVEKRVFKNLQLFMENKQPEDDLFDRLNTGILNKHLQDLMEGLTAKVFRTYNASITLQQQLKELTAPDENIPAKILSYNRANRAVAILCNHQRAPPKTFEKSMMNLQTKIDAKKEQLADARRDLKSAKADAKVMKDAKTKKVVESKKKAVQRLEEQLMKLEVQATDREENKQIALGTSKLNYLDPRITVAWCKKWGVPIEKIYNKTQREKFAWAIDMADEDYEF
Description: Inhibition of human topoisomerase 1-mediated supercoiled pUC19 DNA relaxation assessed as formation of open circle form after 45 mins using ethidium bromide staining by agarose gel electrophoresis.

Data set [4] concerns DNA. As to the kind of experiment: Binding affinity to calf thymus DNA assessed as change in melting temperature at 0.5 drug/DNA ratio by spectrophotometer analysis. Format: nucleic-acid assay. Particulars: Bos taurus.
In data set [5] the test system is SW-620. Description: Antiproliferative activity against human SW620 cells after 72 hrs by MTT assay. Format: functional, cell-based. As to conditions: SW-620, 72 h; for CC50: read-out: LC50 (the source's name).
Data set [6] deals with SK-BR-3. Description: Antiproliferative activity against human SKBR3 cells after 72 hrs by MTT assay. Format: functional, cell-based. As to conditions: SK-BR-3, 72 h; for CC50: read-out: LC50 (the source's name).
Data set [7] in a line: (§1) Antiproliferative activity against human WI38 cells after 72 hrs by MTT assay. Format: cell-based, WI-38. Particulars: human, WI-38 cells; read-out: LC50.
The subject of data set [8] is WI-38. The description is as §1. Format: cell-based. As to conditions: Homo sapiens, WI-38, 72 h.
For data set [9], the system named is MCF7. As to the kind of experiment: Antiproliferative activity against human MCF7 cells after 72 hrs by MTT assay. As to conditions: MCF7, 72 h; for CC50: read-out: LC50 (the source's name). Format: functional, cell-based.
Data set [10] concerns DNA. As to the kind of experiment: Binding affinity to calf thymus DNA at 50 uM by Circular dichroism spectra analysis. Format: nucleic-acid assay. As to conditions: Bos taurus. Background: Circular dichroism is widely used to follow secondary structure.
For data set [11], the system named is HeLa. Description: Antiproliferative activity against human HeLa cells after 72 hrs by MTT assay. Format: functional, cell-based. Particulars: for CC50: read-out: LC50 (the source's name).
In data set [12] the test system is DNA. Description: Binding affinity to calf thymus DNA assessed as hypochromic effect at 20 uM by UV/Vis spectra analysis. Format: nucleic-acid assay. As to conditions: Bos taurus.
In data set [13] the test system is DNA. As to the kind of experiment: Binding affinity to calf thymus DNA assessed as change in melting temperature at 0.25 drug/DNA ratio by spectrophotometer analysis. Format: nucleic-acid assay. As to conditions: Bos taurus.
Data set [14] has as its target T1, DNA topoisomerase 1 (Homo sapiens). As to the kind of experiment: Inhibition of human topoisomerase 1-mediated supercoiled pUC19 DNA relaxation at 1 to 50 uM after 45 mins by agarose gel electrophoresis.

Structures are written as SMILES. Activity calls are given as the source filed them. The rule behind the calls is not given here.

`N=C(N)c1ccc2nc(-c3ccc(-c4nc5ccc(C(=N)N)cc5s4)cc3)sc2c1`: the inhibition result in data set [1] and in data set [3] was “Active” each time. Moreover, the IC50 – broadly, the concentration at which inhibition is half-maximal – in data set [2] was 20.4 µM; in [5], > 100 µM; in [6], 8.55 µM; in [8], 41.9 µM; in data set [9] it was 9.01 µM; in data set [11], 9.6 µM. For the same compound, the CC50 in data set [2], in data set [5], in data set [6], in [9] and in [11] was > 100 µM each time. For the same compound, the ΔTm (as a rule, the shift of the melting midpoint relative to a reference) in data set [4] came to 3 °C. Also, the CC50 at 72 h in data set [7] is > 100 µM. Further, the outcome in [10] was inactive. The outcome in data set [12] was Active.

For the compound `N=C(N)c1ccc2nc(-c3cccc(-c4nc5ccc(C(=N)N)cc5s4)c3)sc2c1`, the inhibition entry in [1] and in data set [3] was “Active” each time. In [13], the ΔTm turned out to be 13.7 °C. Also, the IC50 in data set [2] was > 100 µM; in data set [5], 6.01 µM; in data set [6], 83.2 µM; in [8], 0.99 µM; in data set [9], 5.34 µM; in [11], > 100 µM. Also, the CC50 in [2], in data set [5], in data set [6], in data set [9] and in data set [11] was > 100 µM in each case. For the same compound, the CC50 at 72 h in [7] worked out at 65.4 µM. Moreover, the result in data set [10] and in data set [12] was Active.

As for `c1ccc(-c2nc3ccc(C4=NCCN4)cc3s2)c(-c2nc3ccc(C4=NCCN4)cc3s2)c1`, the inhibition result in [14] is “Active”. The IC50 in [2] was determined as 14.6 µM; in data set [5], 24.7 µM; in [6] it was 1.86 µM; in [8] it was 8.99 µM; in [9], 10.1 µM; in [11], 26.8 µM. Besides, the CC50 came to 72.9 µM in data set [2]; 81.3 µM in data set [5]; 67.9 µM in data set [6]; 71.4 µM in data set [9]; 76.4 µM in [11]. The ΔTm in data set [4] came to 16.8 °C. Moreover, the CC50 at 72 h in data set [7] is 74.3 µM. The outcome in [10] and in data set [12] was Active.

With `N=C(N)c1ccc2nc(-c3ccccc3-c3nc4ccc(C(=N)N)cc4s3)sc2c1`, the IC50 in [2] was 44.8 µM; in data set [5], > 100 µM; in data set [6], 86.6 µM; in data set [8], 86.4 µM; in data set [9], 30.9 µM; in [11] it was 63.6 µM. For the same compound, the CC50 in [2], in data set [5], in [6], in data set [9] and in data set [11] was > 100 µM throughout. In addition, the ΔTm in data set [4] is 9.8 °C. The CC50 at 72 h in data set [7] was > 100 µM. The result in data set [10] and in [12] was Active.
